According to patent US11691951B2 (Curtana Pharmaceuticals, Inc., priority 2015, dated 2023):

Test system: GBM8 cells (human glioblastoma neurosphere cell culture)
Experiment: GBM8 viability assay (Cell Titer Glo luminescence, 3 days)
Format: cell-based
Conditions: 72 h, 3 days incubation
Procedure: Example 283: GBM4 and GBM8 Viability Assay
Cell culture medium was prepared from a NSA proliferation kit (Neurocult) and NeuroCult supplements (Stemcell Tech Cat. #05751) and treated with 20 μL of 10 μg/mL rh EGF, 10 μL of 10 μg/mL rh bFGF and 10 μL of 0.2% Heparin. In this medium, human glioblastoma cells were cultured in ultra-low attachment tissue culture flasks until 1×10^6 cells ml was achieved (GBM4 and GBM8 are distinct neurosphere cell cultures derived from these human patient tissues). GBM4 and GBM8 cells were dissociated and 10 mL of media containing 4000 human glioblastoma cells per 90 uL were transferred to an ultra-low binding 96-well plate and incubated at 37° C. overnight. On the following day, 10 μL of a 1% DMSO solution of test compound in assay medium was added to wells containing the cell suspension and the mixture incubated at 37° C. for 3 days. At this time, the plate was removed from the incubator and allowed to reach room temperature. After about 30 minutes, 50 μL of Cell Titer Glo solution was added to each well and the plate shaken for 1 minute at low speed. After 10 minutes luminescence was recorded using a Tecan Safire2 reader.
Reduction in luminescence compared to DMSO only control wells was used to determine the percentage inhibition of cell growth. IC50s were calculated using the % inhibition of luminescence for serial dilutions of compounds fitted to a 4-parameter fit within the Prism (San Diego) curve fitting program.

Row | Structure (SMILES) | IC50 [µM]
1 | Cc1cc(NCCCN(C)C)nc(NC(=O)Nc2cccc(OC(F)(F)F)c2)n1 [Compound 172, 1-(4-((3-(dimethylamino)propyl)amino)-6-methylpyrimidin-2-yl)-3-(3-(trifluoromethoxy)phenyl)urea] | < 1
2 | Cc1cc(NCC(F)(F)CO)nc(NC(=O)Nc2cccc(C(F)(F)F)c2)n1 [Compound 188] | < 1
3 | Cc1cc(NCCC(N)=O)nc(NC(=O)Nc2ccc(Cl)c(Cl)c2)n1 [Compound 19] | 1 to 10
4 | CCCNc1cc(C)nc(NC(=O)Nc2ccc(OC(F)(F)F)cc2)n1 [Compound 91] | < 1
5 | Cc1cc(NCCCN)nc(NC(=O)Nc2ccc3c(c2)OCO3)n1 [Compound 282] | < 1
6 | Cc1cc(NCC(C)O)nc(NC(=O)Nc2cccc(C(F)(F)F)c2)n1 (stereo not drawn) [Compound 185] | < 1
7 | Cc1cc(NCC(O)CO)nc(NC(=O)Nc2ccc(F)c(C(F)(F)F)c2)n1 (stereo not drawn) [Compound 108] | < 1
8 | Cc1cc(NCCCN)nc(NC(=O)Nc2ccc(C(C)(C)C)cc2)n1 [Compound 303] | < 1
9 | CC(=O)NCCNc1cc(C)nc(NC(=O)Nc2ccc(C(C)(C)C)cc2)n1 [Compound 309, N-(2-{2-[3-(4-tert-butyl-phenyl)-ureido]-6-methyl-pyrimidin-4-ylamino}-ethyl)-ace mid] | < 1
10 | Cc1cc(NCC2CCCN(C)C2)nc(NC(=O)Nc2ccc(C(F)(F)F)cc2)n1 (stereo not drawn) [Compound 206] | 1 to 10
11 | Cc1cc(NCCOCCO)nc(NC(=O)Nc2ccc(C)c(C)c2)n1 [Compound 260] | 1 to 10
12 | CCCNc1cc(C)nc(NC(=O)Nc2ccc3c(c2)OCO3)n1 [Compound 286] | < 1
13 | CC(=O)NCCNc1cc(C)nc(NC(=O)Nc2ccc(OC(F)(F)F)cc2)n1 [Compound 274, N-(3-((6-methyl-2-(3-(4-(trifluoromethoxy)phenyl)ureido)pyrimidin-4-yl)amino)ethyl)acetamide] | < 1
14 | COc1cccc(NC(=O)Nc2nc(C)cc(NCCCCO)n2)c1 [Compound 146] | 1 to 10
15 | Cc1cccc(NC(=O)Nc2nc(C)cc(NCCCc3cnc[nH]3)n2)c1 [Compound 226] | < 1
16 | Cc1cccc(NC(=O)Nc2nc(C)cc(NCCN)n2)c1 [Compound 213] | < 1
17 | Cc1cc(NCCN)nc(NC(=O)Nc2ccc(C(F)(F)F)cc2)n1 [Compound 207] | < 1
18 | Cc1ccc(NC(=O)Nc2nc(C)cc(NCCCCN)n2)cc1 [Compound 241] | < 1
19 | Cc1cc(NCCOCCO)nc(NC(=O)Nc2ccc(Cl)c(C(F)(F)F)c2)n1 [Compound 51] | < 1
20 | Cc1cc(NCCC(N)=O)nc(NC(=O)Nc2ccc(F)c(C(F)(F)F)c2)n1 [Compound 116] | < 1
21 | Cc1cc(NCCCO)nc(NC(=O)Nc2ccc(OC(F)(F)F)cc2)n1 [Compound 86, 1-(4-((3-hydroxypropyl)amino)-6-methylpyrimidin-2-yl)-3-(4-(trifluoromethoxy)phenyl)urea] | < 1
22 | Cc1cc(NCCN)nc(NC(=O)Nc2ccc(F)c(C(F)(F)F)c2)n1 [Compound 110] | < 1
23 | Cc1cc(NCC(C)O)nc(NC(=O)Nc2ccccc2)n1 (stereo not drawn) [Compound 77] | 1 to 10

Row | Structure (SMILES) | IC50 [µM]
24 | CNCCNc1cc(C)nc(NC(=O)Nc2ccc(F)c(Cl)c2)n1 [Compound 169, 1-(3-chloro-4-fluorophenyl)-3-(4-methyl-6-((2-(methylamino)ethyl)amino)pyrimidin-2-yl)urea] | < 1
25 | Cc1cc(NCCCCO)nc(NC(=O)Nc2ccccc2)n1 [Compound 73] | 1 to 10
26 | Cc1cc(NCCCN(C)C)nc(NC(=O)Nc2ccc(C(F)(F)F)cc2)n1 [Compound 196, 1-(4-((3-(dimethylamino)propyl)amino)-6-methylpyrimidin-2-yl)-3-(4-(trifluoromethyl)phenyl)urea] | < 1
27 | Cc1cc(NCCCN)nc(NC(=O)Nc2ccc(C)c(C)c2)n1 [Compound 253] | < 1
28 | CCNc1cc(C)nc(NC(=O)Nc2ccc3c(c2)OCCO3)n1 [Compound 295] | < 1
29 | Cc1cccc(NC(=O)Nc2nc(C)cc(NCCCN)n2)c1 [Compound 210] | < 1
30 | Cc1cc(NCCCc2cnc[nH]2)nc(NC(=O)Nc2ccc(C)c(C)c2)n1 [Compound 266] | < 1
31 | Cc1cc(NCCCCO)nc(NC(=O)Nc2ccc(C(F)(F)F)cc2)n1 [Compound 200] | < 1
32 | Cc1cc(NCCCCN(C)C)nc(NC(=O)Nc2ccc(C)c(C)c2)n1 [Compound 256] | < 1
33 | Cc1cc(NCCO)nc(NC(=O)Nc2ccc(C)c(C)c2)n1 [Compound 259] | < 1
34 | Cc1cc(NCC(F)(F)CO)nc(NC(=O)Nc2ccc(OC(F)(F)F)cc2)n1 [Compound 94] | < 1
35 | Cc1cccc(NC(=O)Nc2nc(C)cc(NCCOCCO)n2)c1 [Compound 217] | < 1
36 | CC(=O)NCCCNc1cc(C)nc(NC(=O)Nc2ccc3c(c2)OCO3)n1 [Compound 305, N-(3-((2-(3-(benzo[d][1,3]dioxol-5-yl)ureido)-6-methylpyrimidin-4-yl)amino)propyl)acetamide] | < 1
37 | Cc1cc(NCCCCN(C)C)nc(NC(=O)Nc2ccc(Cl)c(Cl)c2)n1 [Compound 17] | < 1
38 | COc1ccc(NC(=O)Nc2nc(C)cc(NCCCCO)n2)cc1 [Compound 126] | < 1
39 | COC(=O)CCNc1cc(C)nc(NC(=O)Nc2cccc(C)c2)n1 [Compound 220] | 1 to 10
40 | Cc1cccc(NC(=O)Nc2nc(C)cc(NCCCN(C)C)n2)c1 [Compound 209, 1-(4-((3-(dimethylamino)propyl)amino)-6-methylpyrimidin-2-yl)-3-(m-tolyl)urea] | < 1
41 | Cc1cc(NCCN(C)C)nc(NC(=O)Nc2ccc3c(c2)OCO3)n1 [Compound 284] | 1 to 10
42 | CNCCCNc1cc(C)nc(NC(=O)Nc2ccc(F)c(C(F)(F)F)c2)n1 [Compound 121] | < 1
43 | CCCCNc1cc(C)nc(NC(=O)Nc2ccc(OC)cc2)n1 [Compound 129] | < 1
44 | Cc1cc(NCCCCO)nc(NC(=O)Nc2cccc(OC(F)(F)F)c2)n1 [Compound 175] | < 1
45 | Cc1ccc(NC(=O)Nc2nc(C)cc(NCCCCN(C)C)n2)cc1 [Compound 245] | 1 to 10
46 | Cc1cc(NCCCN(C)C)nc(NC(=O)Nc2ccc3c(c2)OCCO3)n1 [Compound 291, 1-(2,3-dihydrobenzo[b][1,4]dioxin-6-yl)-3-(4-((3-(dimethylamino)propyl)amino)-6-methylpyrimidin-2-yl)urea] | < 1

Row | Structure (SMILES) | IC50 [µM]
47 | Cc1cc(NCCCCN(C)C)nc(NC(=O)Nc2ccc(F)c(C(F)(F)F)c2)n1 [Compound 104] | < 1
48 | CCCNc1cc(C)nc(NC(=O)Nc2ccc(F)c(Cl)c2)n1 [Compound 165] | < 1
49 | CNCCCNc1cc(C)nc(NC(=O)Nc2ccc(Cl)c(Cl)c2)n1 [Compound 29] | < 1
50 | Cc1cc(NCCCO)nc(NC(=O)Nc2cccc(Cl)c2)n1 [Compound 43, 3-{2-[3-(m-chlorophenyl)ureido]-6-methyl-4-pyrimidinylamino}-propanol] | < 1
51 | Cc1cc(NCCO)nc(NC(=O)Nc2ccc(Cl)c(Cl)c2)n1 [Compound 12] | < 1
52 | COc1cccc(NC(=O)Nc2nc(C)cc(NCCN)n2)c1 [Compound 144] | 1 to 10
53 | Cc1cc(NCCN(C)C)nc(NC(=O)Nc2ccccc2)n1 [Compound 74] | 1 to 10
54 | Cc1cccc(NC(=O)Nc2nc(C)cc(NCCCc3ccccn3)n2)c1 [Compound 221] | 1 to 10
55 | Cc1cc(NCC(C)O)nc(NC(=O)Nc2ccc(Cl)c(Cl)c2)n1 (stereo not drawn) [Compound 10, 1-{2-[3-(3,4-Dichlorophenyl)ureido]-6-methyl-4-pyrimidinylamino}-2-propanol] | < 1
56 | CC(=O)NCCNc1cc(C)nc(NC(=O)Nc2cccc(C(F)(F)F)c2)n1 [Compound 277] | 1 to 10
57 | Cc1cccc(NC(=O)Nc2nc(C)cc(NCCN(C)C)n2)c1 [Compound 215] | < 1
58 | Cc1cc(NCCOCCO)nc(NC(=O)Nc2ccc(Cl)c(Cl)c2)n1 [Compound 18] | < 1
59 | CNCCCCNc1cc(C)nc(NC(=O)Nc2cccc(C)c2)n1 [Compound 231] | 1 to 10
60 | CCCNc1cc(C)nc(NC(=O)Nc2ccc(C)c(C)c2)n1 [Compound 261] | < 1
61 | COc1ccc(NC(=O)Nc2nc(C)cc(NCCCCN)n2)cc1 [Compound 137] | < 1
62 | Cc1cc(NCCCN(C)C)nc(NC(=O)Nc2ccc(F)c(Cl)c2)n1 [Compound 157, 1-(3-chloro-4-fluorophenyl)-3-(4-((3-(dimethylamino)propyl)amino)-6-methylpyrimidin-2-yl)urea] | < 1
63 | COc1ccc(NC(=O)Nc2nc(C)cc(NCC(C)O)n2)cc1 (stereo not drawn) [Compound 133] | < 1
64 | Cc1cc(NCCCN)nc(NC(=O)Nc2cccc(C(F)(F)F)c2)n1 [Compound 192] | < 1
65 | CC(=O)NCCCNc1cc(C)nc(NC(=O)Nc2ccc(F)c(Cl)c2)n1 [Compound 278] | < 1
66 | Cc1cc(NCCCCN)nc(NC(=O)Nc2ccc(F)c(C(F)(F)F)c2)n1 [Compound 112] | < 1
67 | CNCCCNc1cc(C)nc(NC(=O)Nc2ccc(C)cc2)n1 [Compound 248, 1-(4-methyl-6-((3-(methylamino)propyl)amino)pyrimidin-2-yl)-3-(p-tolyl)urea] | 1 to 10
68 | Cc1cc(NCCN(C)C)nc(NC(=O)Nc2cccc(OC(F)(F)F)c2)n1 [Compound 174] | 1 to 10
69 | Cc1cccc(NC(=O)Nc2nc(C)cc(NCCCCO)n2)c1 [Compound 212] | < 1
